# In patent publication US9204653B2, “5-fluoro pyrimidine derivatives” (DOW AGROSCIENCES LLC, priority 2008, dated 2015):
# Read-outs that look alike come from different tables or passages of the source.
# System: Mycosphaerella graminicola; Anamorph: Septoria tritici; Bayer Code SEPTTR
# Experiment: Leaf blotch of wheat, foliar fungicide treatment, one day protectant (1DP) or three day curative (3DC)
# Format: in vivo, Septoria tritici on wheat plants (variety Yuma)
# Settings: Zymoseptoria tritici
# [1] = 24 h, one day protectant (1DP), 25 ppm, rating of percent disease control, read-out: SETTTR 1DP 25 ppm
# [2] = 24 h, one day protectant (1DP), rating of percent disease control, read-out: SEPTTR 1DP 100 ppm
# [3] = 24 h, one day protectant (1DP), 25 ppm (first 1DP column), percent control rating, read-out: SETTTR 1DP 25 ppm
# [4] = 24 h, one day protectant (1DP), 25 ppm as printed (second 1DP column), percent control rating, read-out: SETTTR 1DP 25 ppm
# [5] = 72 h, three day curative (3DC), 25 ppm, percent control rating, read-out: SEPTTR 3DC 25 ppm
# [6] = 72 h, three day curative (3DC), percent control rating, read-out: SEPTTR 3DC 100 ppm
# [7] = 24 h, one day protectant, 25 ppm, rating of percent disease control, read-out: SETTTR 1DP 25 ppm
# [8] = 24 h, one day protectant, rating of percent disease control, read-out: SEPTTR 1DP 100 ppm
# [9] = 72 h, three day curative, 25 ppm, rating of percent disease control, read-out: SEPTTR 3DC 25 ppm
# [10] = 72 h, three day curative, rating of percent disease control, read-out: SEPTTR 3DC 100 ppm
# [11] = 72 h, three day curative (3DC), 25 ppm, rating of percent disease control, read-out: SEPTTR 3DC 25 ppm
# [12] = 72 h, three day curative (3DC), rating of percent disease control, read-out: SEPTTR 3DC 100 ppm
# [13] = 24 h, % disease control rating, one day protectant
compound,measurement,setting,value
CN(CCOc1ncc(F)c(N)n1)c1ccccc1 [Compound 372],pest or weed control at 25 ppm,[1],26 to 50%
same,pest or weed control at 100 ppm,[2],76 to 100%
CCS(=O)(=O)Nc1nc(OCc2ccc(C)cc2)ncc1F [Compound 1006],pest or weed control at 25 ppm,[3],0 to 25%
same,pest or weed control at 25 ppm,[4],0 to 25%
same,pest or weed control at 25 ppm,[5],0 to 25%
same,pest or weed control at 100 ppm,[6],0 to 25%
CC[Si](CC)(CC)Nc1nc(OC(C)c2ccc(F)cc2)ncc1F (centres unmarked) [Compound 674],pest or weed control at 25 ppm,[7],76 to 100%
same,pest or weed control at 100 ppm,[8],76 to 100%
same,pest or weed control at 25 ppm,[9],76 to 100%
same,pest or weed control at 100 ppm,[10],76 to 100%
COc1ncc(F)c(N(O)Cc2ccc(Cl)nc2)n1 [Compound 1054],pest or weed control at 25 ppm,[3],0 to 25%
same,pest or weed control at 25 ppm,[4],0 to 25%
same,pest or weed control at 25 ppm,[5],0 to 25%
same,pest or weed control at 100 ppm,[6],0 to 25%
COc1ncc(F)c(NNc2ncnc3ccccc23)n1 [Compound 1051],pest or weed control at 25 ppm,[3],0 to 25%
same,pest or weed control at 25 ppm,[4],0 to 25%
same,pest or weed control at 25 ppm,[5],26 to 50%
same,pest or weed control at 100 ppm,[6],0 to 25%
C=CCOc1ncc(F)c(N/N=C(\C)c2ccc(F)cc2)n1 [Compound 1060],pest or weed control at 25 ppm,[3],0 to 25%
same,pest or weed control at 25 ppm,[4],0 to 25%
same,pest or weed control at 25 ppm,[5],0 to 25%
same,pest or weed control at 100 ppm,[6],0 to 25%
CC(C)c1ccc(C(C)Oc2ncc(F)c(N)n2)cc1 (centres unmarked) [Compound 387],pest or weed control at 25 ppm,[1],76 to 100%
same,pest or weed control at 100 ppm,[2],76 to 100%
same,pest or weed control at 25 ppm,[11],76 to 100%
same,pest or weed control at 100 ppm,[12],76 to 100%
COc1ccc(COc2ncc(F)c(NC(=O)Nc3ccccc3F)n2)cc1F [Compound 519],pest or weed control at 25 ppm,[1],0 to 25%
same,pest or weed control at 100 ppm,[2],0 to 25%
same,pest or weed control at 25 ppm,[11],0 to 25%
same,pest or weed control at 100 ppm,[12],0 to 25%
CCOCNc1nc(OCc2cccc(C#N)c2)ncc1F [Compound 516],pest or weed control at 25 ppm,[1],76 to 100%
same,pest or weed control at 100 ppm,[2],76 to 100%
same,pest or weed control at 25 ppm,[11],76 to 100%
same,pest or weed control at 100 ppm,[12],76 to 100%
Fc1cccc(COc2ncc(F)c(NC(=S)Nc3ccccc3F)n2)c1 [Compound 266],pest or weed control at 25 ppm,[1],76 to 100%
same,pest or weed control at 100 ppm,[2],76 to 100%
same,pest or weed control at 25 ppm,[11],0 to 25%
same,pest or weed control at 100 ppm,[12],76 to 100%
Fc1cnc(OCc2ccc(Cl)cc2)nc1NCC(F)(F)F [Compound 885],pest or weed control at 50 ppm,"24 h, % disease control rating, one day protectant, 50 ppm",26 to 50%
same,pest or weed control at 200 ppm,[13],51 to 75%
Fc1cnc(OCc2cccc(Cl)c2)nc1NCc1cccs1 [Compound 912],pest or weed control at 200 ppm,[13],76 to 100%
COc1ccc(COc2ncc(F)c(N)n2)cc1C [Compound 386],pest or weed control at 25 ppm,[1],76 to 100%
same,pest or weed control at 100 ppm,[2],76 to 100%
same,pest or weed control at 25 ppm,[11],76 to 100%
same,pest or weed control at 100 ppm,[12],76 to 100%
CC(=O)Nc1nc(OCCc2ccc(Cl)cc2)ncc1F [Compound 624],pest or weed control at 25 ppm,[7],51 to 75%
same,pest or weed control at 100 ppm,[8],76 to 100%
same,pest or weed control at 25 ppm,[9],51 to 75%
same,pest or weed control at 100 ppm,[10],76 to 100%
CN1CCCC/C1=N\c1nc(OCc2cccc(F)c2)ncc1F [Compound 326],pest or weed control at 25 ppm,[1],76 to 100%
same,pest or weed control at 100 ppm,[2],76 to 100%
same,pest or weed control at 25 ppm,[11],51 to 75%
same,pest or weed control at 100 ppm,[12],76 to 100%
CS(=O)(=O)Nc1nc(OCc2ccccc2)ncc1F [Compound 1008],pest or weed control at 25 ppm,[3],0 to 25%
same,pest or weed control at 25 ppm,[4],0 to 25%
same,pest or weed control at 25 ppm,[5],0 to 25%
same,pest or weed control at 100 ppm,[6],0 to 25%
COc1ccc(Oc2ncc(F)c(N)n2)cc1 [Compound 573],pest or weed control at 25 ppm,[7],26 to 50%
same,pest or weed control at 100 ppm,[8],51 to 75%
same,pest or weed control at 25 ppm,[9],0 to 25%
same,pest or weed control at 100 ppm,[10],0 to 25%
C=CCOc1ncc(F)c(NOCC)n1 [Compound 1072],pest or weed control at 25 ppm,[3],0 to 25%
same,pest or weed control at 25 ppm,[4],0 to 25%
same,pest or weed control at 25 ppm,[5],0 to 25%
same,pest or weed control at 100 ppm,[6],0 to 25%
Fc1cnc(OCc2ccc3c(c2)OCO3)nc1NCc1cccs1 [Compound 839],pest or weed control at 200 ppm,[13],76 to 100%
O=S(=O)(Cc1ccccc1)Nc1nc(O)ncc1F [Compound 1132],pest or weed control at 25 ppm,"24 h, one day protectant (1DP), 25 ppm (first 1DP column), percent disease control rating, read-out: SETTTR 1DP 25 ppm",51 to 75%
same,pest or weed control at 25 ppm,"24 h, one day protectant (1DP), 25 ppm as printed (second 1DP column), percent disease control rating, read-out: SETTTR 1DP 25 ppm",51 to 75%
same,pest or weed control at 25 ppm,"72 h, three day curative (3DC), 25 ppm, percent disease control rating, read-out: SEPTTR 3DC 25 ppm",76 to 100%
same,pest or weed control at 100 ppm,"72 h, three day curative (3DC), percent disease control rating, read-out: SEPTTR 3DC 100 ppm",76 to 100%
Cc1ccc(COc2ncc(F)c(N)n2)cc1F [Compound 232],pest or weed control at 25 ppm,[1],76 to 100%
same,pest or weed control at 100 ppm,[2],76 to 100%
same,pest or weed control at 25 ppm,[11],76 to 100%
same,pest or weed control at 100 ppm,[12],76 to 100%
